Laboratory results as given in PubChem BioAssay AID1259407 (Chemical Carcinogenesis Research Information System (CCRIS), 2018).
Activity calls are given as the source filed them. How the calls were made is not given here.

Tested on: CCRIS mutagenicity, Ames/micronucleus/aberration tests
Experiment: CCRIS mutagenicity studies
[1] = Test System: AMES SALMONELLA TYPHIMURIUM, Strain/Indicator: TA98, Metabolic Activation: NONE, Method: STANDARD PLATE
[2] = Test System: AMES SALMONELLA TYPHIMURIUM, Strain/Indicator: TA98, Metabolic Activation: RAT, LIVER, S-9, AROCLOR 1254, Method: STANDARD PLATE
[3] = Test System: AMES SALMONELLA TYPHIMURIUM, Strain/Indicator: TA100, Metabolic Activation: NONE, Method: STANDARD PLATE
[4] = Test System: AMES SALMONELLA TYPHIMURIUM, Strain/Indicator: TA100, Metabolic Activation: RAT, LIVER, S-9, AROCLOR 1254, Method: STANDARD PLATE
[5] = Test System: AMES SALMONELLA TYPHIMURIUM, Strain/Indicator: TA1535, Metabolic Activation: NONE, Method: STANDARD PLATE
[6] = Test System: AMES SALMONELLA TYPHIMURIUM, Strain/Indicator: TA1535, Metabolic Activation: RAT, LIVER, S-9, AROCLOR 1254, Method: STANDARD PLATE
[7] = Test System: AMES SALMONELLA TYPHIMURIUM, Strain/Indicator: TA1537, Metabolic Activation: NONE, Method: STANDARD PLATE
[8] = Test System: AMES SALMONELLA TYPHIMURIUM, Strain/Indicator: TA1537, Metabolic Activation: RAT, LIVER, S-9, AROCLOR 1254, Method: STANDARD PLATE
[9] = Test System: AMES SALMONELLA TYPHIMURIUM, Strain/Indicator: TA100, Metabolic Activation: NONE, Method: PREINCUBATION

| SMILES | mutagenic call [1] | mutagenic call [2] | mutagenic call [3] | mutagenic call [4] | mutagenic call [5] | mutagenic call [6] | mutagenic call [7] | mutagenic call [8] | further results |
| --- | --- | --- | --- | --- | --- | --- | --- | --- | --- |
| O=S(=O)(Oc1ccc(Cl)c(Cl)c1)c1cccc2cccnc12 | inactive; negative | active; positive | inactive; negative | active; positive | inactive; negative | inactive; negative | inactive; negative | inactive; negative |  |
| CCC(=O)n1ncc(Cl)c(Cl)c1=O | inactive; negative | inactive; negative | inactive; negative | inactive; negative | inactive; negative | inactive; negative | inactive; negative | inactive; negative |  |
| CCN(Cc1cccc(S(=O)(=O)O)c1)c1ccc(C(=C2C=CC(=[N+](CC)Cc3cccc(S(=O)(=O)[O-])c3)C=C2)c2ccc(S(=O)(=O)O)cc2)cc1 |  |  |  |  |  |  |  |  | mutagenic call (Test System: AMES SALMONELLA TYPHIMURIUM, Strain/Indicator: TA98, Metabolic Activation: HAMSTER, LIVER, S-9, AROCLOR 1254, Method: STANDARD PLATE): active; positive; mutagenic call (Test System: AMES SALMONELLA TYPHIMURIUM, Strain/Indicator: TA98, Metabolic Activation: HAMSTER, LIVER, S-9, Method: PREINCUBATION (PRIVAL METHOD)): active; positive; mutagenic call (Test System: AMES SALMONELLA TYPHIMURIUM, Strain/Indicator: TA100, Metabolic Activation: HAMSTER, LIVER, S-9, Method: PREINCUBATION (PRIVAL METHOD)): active; positive; mutagenic call (Test System: AMES SALMONELLA TYPHIMURIUM, Strain/Indicator: TA1538, Metabolic Activation: HAMSTER, LIVER, S-9, AROCLOR 1254, Method: STANDARD PLATE): active; positive; mutagenic call (Test System: Mouse lymphoma, Strain/Indicator: L5178Y (tk+/tk-), Metabolic Activation: None, Method: Suspension/plate): active; positive; mutagenic call (Test System: Mouse lymphoma, Strain/Indicator: L5178Y (tk+/tk-), Metabolic Activation: Rat, Liver, S-9, Aroclor 1254, Method: Suspension/plate): inactive; negative |
| N1=NC2[C@@H]3O[C@@H]3C1[C@H]1O[C@@H]21 | inactive; negative |  | inactive; negative |  |  |  |  |  | mutagenic call (Test System: AMES SALMONELLA TYPHIMURIUM, Strain/Indicator: TA98, Metabolic Activation: RAT, LIVER, S-9, PHENOBARBITAL, Method: STANDARD PLATE): inactive; negative; mutagenic call (Test System: AMES SALMONELLA TYPHIMURIUM, Strain/Indicator: TA100, Metabolic Activation: RAT, LIVER, S-9, PHENOBARBITAL, Method: STANDARD PLATE): inactive; negative; mutagenic call (Test System: AMES SALMONELLA TYPHIMURIUM, Strain/Indicator: TM677/8-AZAGUANINE, Metabolic Activation: NONE, Method: STANDARD PLATE): inactive; negative |
| NC(=O)N(CCC(=O)O)N=O |  |  |  |  |  |  |  |  | mutagenic call [9]: active; positive; mutagenic call (Test System: AMES SALMONELLA TYPHIMURIUM, Strain/Indicator: TA1535, Metabolic Activation: NONE, Method: PREINCUBATION): active; positive; mutagenic call (Test System: E. COLI B, Strain/Indicator: H/R30R, Metabolic Activation: NONE): active; positive; mutagenic call (Test System: E. COLI B, Strain/Indicator: HS30R, Metabolic Activation: NONE): active; positive |
| CN(C)CCCNc1c2ccccc2nc2c([N+](=O)[O-])cccc12 | active; positive |  | active; positive |  | inactive; negative |  | active; positive |  | mutagenic call (Test System: AMES SALMONELLA TYPHIMURIUM, Strain/Indicator: TA98(1,8-DNP6), Metabolic Activation: NONE, Method: STANDARD PLATE): active; positive; mutagenic call (Test System: AMES SALMONELLA TYPHIMURIUM, Strain/Indicator: TA98(1,8-DNP6), Metabolic Activation: RAT, LIVER, S-9, Method: STANDARD PLATE): active; positive; mutagenic call (Test System: AMES SALMONELLA TYPHIMURIUM, Strain/Indicator: TA98(NR), Metabolic Activation: NONE, Method: STANDARD PLATE): active; positive; mutagenic call (Test System: AMES SALMONELLA TYPHIMURIUM, Strain/Indicator: TA98(NR), Metabolic Activation: RAT, LIVER, S-9, Method: STANDARD PLATE): active; positive; mutagenic call (Test System: AMES SALMONELLA TYPHIMURIUM, Strain/Indicator: TA98, Metabolic Activation: RAT, LIVER, S-9, Method: STANDARD PLATE): active; positive; mutagenic call (Test System: AMES SALMONELLA TYPHIMURIUM, Strain/Indicator: TA1537 PKM101, Metabolic Activation: NONE, Method: STANDARD PLATE): active; positive; mutagenic call (Test System: AMES SALMONELLA TYPHIMURIUM, Strain/Indicator: TA1538, Metabolic Activation: NONE, Method: STANDARD PLATE): active; positive; mutagenic call (Test System: CHINESE HAMSTER V-79, Strain/Indicator: V-79/6-THIOGUANINE, Metabolic Activation: NONE, Method: STANDARD PLATE): active; positive; mutagenic call (Test System: CHINESE HAMSTER V-79, Strain/Indicator: V-79/OUABAIN, Metabolic Activation: NONE, Method: STANDARD PLATE): inactive; negative; mutagenic call (Test System: Escherichia coli, Strain/Indicator: CC107 (G6 to G7 frameshifts), Metabolic Activation: None, Method: Modified preincubation): active; positive; mutagenic call (Test System: Escherichia coli, Strain/Indicator: CC108 (G6 to G5 frameshifts), Metabolic Activation: None, Method: Modified preincubation): active; positive; mutagenic call (Test System: Escherichia coli, Strain/Indicator: CC109 (CG5 to CG4 frameshifts), Metabolic Activation: None, Method: Modified preincubation): inactive; negative, investigators report as positive based on revertant frequency correcte; mutagenic call (Test System: Escherichia coli, Strain/Indicator: CC111 (A7 to A6 frameshifts), Metabolic Activation: None, Method: Modified preincubation): inactive; negative |
| Cc1ccc(S(=O)(=O)n2ncc(Cl)c(Cl)c2=O)cc1 | inactive; negative | inactive; negative | inactive; negative | inactive; negative | inactive; negative | inactive; negative | inactive; negative | inactive; negative |  |
| Fc1cnc2c(ccc3ccccc32)c1 |  |  |  |  |  |  |  |  | mutagenic call (Test System: AMES SALMONELLA TYPHIMURIUM, Strain/Indicator: TA100, Metabolic Activation: RAT, LIVER, S-9, PHENOBARBITAL AND 5,6-BENZOFLAVONE, Method: PREINCUBATION): inactive; negative |
| CC12CCC=C(C=O)C1(C=O)C2 (configuration not stated) | active; positive |  | active; positive |  |  |  |  |  |  |
| O=P1(NCCCl)OCCCN1CCCl (configuration not stated) |  |  |  | active; positive |  | active; positive |  |  | mutagenic call (Test System: AMES SALMONELLA TYPHIMURIUM, Strain/Indicator: TA100, Metabolic Activation: NADPH, Method: PREINCUBATION): active; positive; mutagenic call [9]: active; positive; mutagenic call (Test System: AMES SALMONELLA TYPHIMURIUM, Strain/Indicator: TA100, Metabolic Activation: RAT, LIVER, HEPATOCYTES, PHENOBARBITAL, Method: PREINCUBATION): inactive; negative; mutagenic call (Test System: AMES SALMONELLA TYPHIMURIUM, Strain/Indicator: TA100, Metabolic Activation: RAT, LIVER, S-9, PHENOBARBITAL, NADPH, Method: PREINCUBATION): active; positive; mutagenic call (Test System: AMES SALMONELLA TYPHIMURIUM, Strain/Indicator: TA100, Metabolic Activation: RAT, LIVER, S-9, PHENOBARBITAL, Method: PREINCUBATION): active; positive; mutagenic call (Test System: AMES SALMONELLA TYPHIMURIUM, Strain/Indicator: TA1535, Metabolic Activation: RAT, LIVER, HEPATOCYTES, PHENOBARBITAL, Method: PREINCUBATION): active; positive |
